Data as given in patent EP2905286A1, “Novel diazabicyclohydrocarbon-Pt complexes and the use thereof as pharmaceuticals” (Studiengesellschaft Kohle mbH, priority 2014, dated 2015).

Experiments:
A2780 CisR cells = assay: MTT cell viability assay, cisplatin resistance model; type: cell-based; settings: for IC50: A2780 CisR cells, 72 h incubation, MTT; for resistance factor: ratio of IC50 in A2780 CisR cells to IC50 in parental A2780 cells
Protocol: (§1) The rate of cell-survival under the action of test compounds was evaluated by an improved MTT assay as previously described for 3-(4,5-dimethylthiazol-2-yl)-2,5-diphenyltetrazolium bromide (MTT, Applichem, Germany) (Mueller, H., Kassack, M. U., Wiese, M. J. Biomol. Screen. 2004, 9, 506-515).
(§2) The assay is based on the ability of viable cells to metabolize yellow MTT to violet formazane crystals that can be detected spectrophotometrically. In brief, A2780 (ECACC, Salisbury, UK) and A2780 CisR cells (established by exposure of A2780 cells to weekly cycles of 2 µmol/L cisplatin over a period of 24 weeks) were seeded at a density of 8,000 cells/well in 96well plates (Corning, Germany) in 90 µL drug-free complete medium. After an incubation period of 24 h at 37 °C under humidified air supplemented with 5% CO2, cells were exposed to dilutions of the test compounds in 100 µL/well. Stock solutions were prepared in a concentration of 10^-2 M in water, and serial dilutions were prepared by using sodium chloride 0.9%. Incubation was ended after 72 h and cell survival was determined by addition of 25 µL/well MTT solution (5 mg/mL in phosphate buffered saline). After an incubation period of 10 min at 37 °C, the medium was carefully removed. The intracellular formazan product was solubilized by adding 75 µl DMSO/well. Absorbance was measured at 544 nm and 690 nm with a FLUOstar microplate-reader (BMG LabTech, Offenburg, Germany). The absorbance of untreated control cells was taken as 100% viability. All tests were performed in triplicate.
(§3) Indicated are mean values ± standard error of the mean. Concentration/inhibition curves were fitted to the data by nonlinear regression analysis using the four parameter logistic equation (GraphPad Prism).
Values are means ± SEM derived from a representative experiment performed in triplicate. The resistance factor was calculated as the ratio of the IC50 value of the A2780 CisR cells and the IC50 value of the corresponding sensitive parental A2780 cell line.

A2780 = assay: MTT cell viability assay; type: cell-based; settings: A2780 cells, 72 h incubation
Protocol: as §1, §2, §3

[1] = Solubility observed during preparation; type: physicochemical; settings: for solubility in solvents in general: most or all solvents (ambient temperature, including CH2Cl2 and THF; including DMSO)

`O=C1[O][Pt]2([NH][C@@H]3CCCC[C@H]3[NH]2)[O]C1=O` (relative stereo) [oxaliplatin, trans-(R,R)-1,2-diamino-cyclohexane platinum(II)oxalate, reference compound] showed an IC50 (A2780 CisR cells) of 0.95 µM, a resistance factor (A2780 CisR cells) of 4.52 and an IC50 (A2780) of 0.21 µM.

With `C1NCC2CNCC1C2.[Cl][Pt][Cl]` [1a, (C7H14N2)PtCl2] the “solubility in DMF” value [1] was “dissolve increasingly well”, the “solubility in DMSO” value [1] was “dissolve increasingly well” and the “solubility in solvents in general” value [1] was “insoluble in most solvents”. For the same compound, the solubility in water [1] was “dissolve increasingly well”, the IC50 (A2780 CisR cells) was 10.6 µM and the resistance factor (A2780 CisR cells) was 2.52. The IC50 (A2780) was 4.2 µM.

With `C1NCC2CNCC1C2.CN(C)C=O.[Cl][Pt][Cl]` [1b, (C7H14N2)PtCl2·DMF] the “solubility in DMF” value [1] was “dissolve increasingly well”, the “solubility in DMSO” value [1] was “dissolve increasingly well” and the “solubility in solvents in general” value [1] was “insoluble in most solvents”. The solubility in water [1] was “dissolve increasingly well”.

For `C1NCC2CNCC1C2.O=C1[O][Pt][O]C(=O)C12CCC2` [2a, (C7H14N2)Pt{(O2C)2C4H6}], the “solubility in DMF” value [1] was “poor”, the solubility in water [1] was “more soluble in water than the dichloride 1” and the IC50 (A2780 CisR cells) was 57.1 µM. For the same compound, the resistance factor (A2780 CisR cells) was 6.46 and the IC50 (A2780) was 8.84 µM.

`N.N.O=C([O-])C1(C(=O)[O-])CCC1.[Pt+2]` [carboplatin, reference compound] gave an IC50 (A2780 CisR cells) of 40.2 µM, a resistance factor (A2780 CisR cells) of 9.50 and an IC50 (A2780) of 4.23 µM.

For `N.N.[Cl][Pt][Cl]` [cisplatin, cis-(NH3)2PtCl2, reference compound], the IC50 (A2780) was 1.38 µM.

`C1NCC2CNCC1C2.O=C1[O][Pt][O]C1=O` [compound 3, (C7H14N2)Pt(C2O4)] gave an IC50 (A2780 CisR cells) of 35.3 µM, a resistance factor (A2780 CisR cells) of 4.88 and an IC50 (A2780) of 7.24 µM.

With `[Cl][Pt]1([Cl])[N]2CC3C[N]1CC(C2)C31OCCO1` [compound 4, (Spiro[bispidin-9,2'-[1,3]dioxolane])platinum(II)dichloride] the “solubility in solvents in general” value [1] was “insoluble in all solvents, including DMSO”.

With `O=C([O-])C1(C(=O)[O-])CCC1.OC1(O)C2CNCC1CNC2.[Pt+2]` [compound 6, (Bispidin-9,9-diol)platinum(II)(1,1-cyclobutanedicarboxylate)] the “solubility in DMF” value [1] was “dissolves well”, the “solubility in DMSO” value [1] was “dissolves well” and the solubility in water [1] was “dissolves well”.
